Experimental data: patent publication US20100286186A1, “NOVEL DICARBOXYLIC ACID LINKED AMINO ACID AND PEPTIDE PRODRUGS OF OPIOIDS AND USES THEREOF” (Shire LLC, priority 2009, published 2010)
Several values for one entry are separate records, joined by “and”; a condition that tells them apart may be missing. Equal entries are not always repeated. Marks after values point to notes of the source that are not given here.

Legend:
[1] = In vitro stability of dicarboxylate amino acid ester prodrugs in simulated gastric and intestinal juice, distilled water and pH 10 buffer (HPLC); conditions: for Simulated gastric fluid (pH 1.1): % remaining after 2 h/37° C.: pH 1.1, 2 h; for Distilled water (pH 5.9): % remaining after 2 h/20° C.: pH 5.9, 2 h; for Simulated intestinal fluid (pH 6.8): % remaining after 2 h/37° C.: pH 6.8, 2 h; for pH 10.0 buffer: % remaining after 2 h/20° C.: pH 10.0, 2 h
[2] = Bioavailability of oxycodone, codeine and dihydrocodeine from their succinyl valine ester prodrugs in the dog (oral gavage, two-way crossover); conditions: dogs, oral gavage; for T>50%Cmax of dihydrocodeine: 1 mg free base equivalents dihydrocodeine/kg; for T>50%Cmax of codeine: 1 mg free base equivalents codeine/kg
Experimental: The characteristics of the test animals are set out in Table 10, below.
(§1) Blood samples were taken at various times after administration and submitted to analysis for the parent drug and pro-drug using a validated LC-MS-MS assay. Pharmacokinetic parameters derived from the plasma analytical data were determined using Win Nonlin.

gut motility in the rat = assay: Charcoal propulsion test of GI motility in the rat; assay type: in vivo; conditions: oral; for delay of the passage of the charcoal meal (gut motility): 30 mg/kg or equimolar dose
Experimental: Test treatments were administered to groups of up to 10 rats fasted overnight prior to the test.
Test treatments were administered orally 60 minutes prior to a 2.0 mL oral dose of a 10% suspension of charcoal in 5% gum arabic. Thirty minutes after dosing with charcoal, the rats were sacrificed and the entire gastro-intestinal tract quickly and carefully removed. The distance the charcoal meal had traveled from the pyloric sphincter toward the caecum was measured and expressed as a percentage of both the total gut length and the length of the small intestine.

[3] = Systemic availability of hydrocodone in dogs after oral administration of hydrocodone or hydrocodone succinyl valine enol ester; conditions: 1 mg hydrocodone free base equivalents/kg; for half-life: t½ of hydrocodone
Experimental: Test substances i.e. hydrocodone or hydrocodone succinyl valine enol ester were administered by oral gavage to a group of five male dogs in a two-way crossover design The characteristics of the test animals are set out in Table 26, below.
as §1

[4] = Plasma pharmacokinetics of meptazinol dicarboxylate linked prodrugs after oral gavage to dogs; assay type: in vivo, dog; conditions: dog, 1 mg meptazinol base equivalents/kg; for Dog Cmax (plasma meptazinol) / Dog Cmax (plasma prodrug levels, in brackets): oral gavage of prodrug; for Dog Cmax (plasma meptazinol): meptazinol level; for Dog Cmax (plasma prodrug levels, in brackets): prodrug level, BLQ = below 0.5 ng/mL
[5] = Plasma pharmacokinetics of meptazinol dicarboxylate linked prodrugs after oral gavage to cynomolgus monkeys; assay type: in vivo, cynomolgus monkey; conditions: 1 mg meptazinol base equivalents/kg; for Monkey Cmax (plasma prodrug levels, in brackets): prodrug level, BLQ = below 0.5 ng/mL
[6] = Stability of meptazinol dicarboxylate bridged amino acid prodrugs in simulated gastric and intestinal juice and pH 7.4 buffer; assay type: physicochemical; conditions: for 2 h stability in pH7.4 buffer (37° C.), Conversion to meptazinol: pH 7.4 buffer
Source text: Initially the inherent chemical and biological stability of various dicarboxylate bridged amino acid prodrugs of meptazinol, was investigated under the conditions prevailing in the GI tract. Premature hydrolysis of the prodrug in the gut lumen prior to absorption would reduce the opportunity for transient protection of the drug during its passage though the liver and the desired reduction in first pass metabolism.
The remaining concentrations of the prodrug (and also drug released) were then assayed by HPLC. Additionally their chemical stability was evaluated in pH 7.4 buffer for 2 h 37° C.

[7] = Comparative pharmacokinetics of oxycodone after oral administration to female Sprague Dawley rats; conditions: oral, 10 mg oxycodone free base equivalents/kg, median
[8] = Comparative pharmacokinetics of oxycodone in the cynomolgus monkey after oral administration; conditions: for T>50%Cmax of oxycodone: oral
[9] = Comparative oral bioavailability of oxycodone from various dicarboxylate bridged amino acid prodrugs in dogs (nine-way crossover); assay type: in vivo, dog; conditions: 1 mg/kg oxycodone free base, mean (±sd)
[10] = male dogs, oral, individual dogs 1M-5M
[11] = cynomolgus monkey, oral gavage of prodrug
[12] = simulated intestinal fluid, 2 h
[13] = male cynomolgus monkeys, 1 mg oxycodone free base equivalents/kg, mean (n=5)

## COc1ccc2c3c1O[C@H]1[C@@H](OC(=O)CCC(=O)NC(C(=O)O)C(C)C)CCC4[C@@H](C2)N(C)CC[C@@]341 (stereo in doubt) [dihydrocodeine-[succinyl-(S)-valine]ester]
[1]
  Simulated gastric fluid (pH 1.1): % remaining after 2 h/37° C.: 100%
  Distilled water (pH 5.9): % remaining after 2 h/20° C.: 100%
  Simulated intestinal fluid (pH 6.8): % remaining after 2 h/37° C.: 100%
  pH 10.0 buffer: % remaining after 2 h/20° C.: 98%
[2]; individual dogs 1-5
  T>50%Cmax of dihydrocodeine: 3 h (2×) and 2 h and 1 h (2×)
[2]; median (n=5)
  T>50%Cmax of dihydrocodeine: 2^a h
Gut motility in the rat; 10 mg/kg
  % change from vehicle-treated animals, small intestine: −17.4%
  % change from vehicle-treated animals, total gut length: −16.6%
Gut motility in the rat; 30 mg/kg
  % change from vehicle-treated animals, small intestine: −8.5%
  % change from vehicle-treated animals, total gut length: −8.5%
Gut motility in the rat; 100 mg/kg
  % change from vehicle-treated animals, small intestine: −13.3%
  % change from vehicle-treated animals, total gut length: −12.9%
Gut motility in the rat; 300 mg/kg
  % change from vehicle-treated animals, small intestine: −35.7%
  % change from vehicle-treated animals, total gut length: −35.3%

## COc1ccc2c3c1O[C@H]1[C@@H](O)C=C[C@H]4[C@@H](C2)N(C)CC[C@@]341.Cl [Codeine HCl, reference compound]
[2]; individual dogs 1-5, HCl
  T>50%Cmax of codeine: 1.5 h (3×) and 0.5 h (2×)
[2]; median (n=5)
  T>50%Cmax of codeine: 1.5^a h

## COc1ccc2c3c1O[C@H]1[C@@H](OC(=O)CCC(=O)N[C@H](C(=O)O)C(C)C)C=CC4[C@@H](C2)N(C)CC[C@@]341 (stereo partly drawn) [Codeine-[succinyl-(S)-valine] ester, codeine-[succinyl-(S)-valine]ester]
[1]
  Simulated gastric fluid (pH 1.1): % remaining after 2 h/37° C.: 99%
  Distilled water (pH 5.9): % remaining after 2 h/20° C.: 100%
  Simulated intestinal fluid (pH 6.8): % remaining after 2 h/37° C.: 98%
  pH 10.0 buffer: % remaining after 2 h/20° C.: 92%
[2]; individual dogs 1-5
  T>50%Cmax of codeine: 2 h (4×) and 1 h
[2]; median (n=5)
  T>50%Cmax of codeine: 2^a h
Gut motility in the rat; 10 mg/kg
  % change from vehicle-treated animals, small intestine: −9.7%
  % change from vehicle-treated animals, total gut length: −9.3%
Gut motility in the rat; 30 mg/kg
  % change from vehicle-treated animals, small intestine: −15.7%
  % change from vehicle-treated animals, total gut length: −15.1%
Gut motility in the rat; 100 mg/kg
  % change from vehicle-treated animals, small intestine: −16.4%
  % change from vehicle-treated animals, total gut length: −15.6%

## COc1ccc2c3c1O[C@H]1C(=O)CC[C@H]4[C@@H](C2)N(C)CC[C@]314 [Hydrocodone, hydrocodone]
[3]; [10]
  AUC of hydrocodone: 155 ng·h/mL and 111 ng·h/mL and 91.7 ng·h/mL and 71.0 ng·h/mL and 95.3 ng·h/mL
  AUCt of hydrocodone: 154 ng·h/mL and 107 ng·h/mL and 89.2 ng·h/mL and 69.7 ng·h/mL and 94.1 ng·h/mL
  Cmax of hydrocodone: 119 ng/mL and 76.8 ng/mL and 57.8 ng/mL and 53.3 ng/mL and 71.1 ng/mL
  T>50%Cmax of hydrocodone: 0.75 h (3×) and 1.25 h (2×)
  t½ of hydrocodone: 1.58 h and 1.66 h (2×) and 1.46 h
[3]; male dogs, oral, mean
  T>50%Cmax of hydrocodone: 0.95 h
[3]; male dogs, oral, median
  Tmax of hydrocodone: 0.5* h
[3]; male, Beagle, dog, plasma, po
  Tmax: 0.5 h
[3]; male, Beagle, dog, plasma, po, AUC of hydrocodone, male dogs, mean
  AUC: 105 ng·h/mL
[3]; male, Beagle, dog, plasma, po, AUCt of hydrocodone, male dogs, mean
  AUC(0-t): 103 ng·h/mL
[3]; male, Beagle, dog, plasma, po, Cmax of hydrocodone, male dogs, mean (n=5)
  Cmax: 75.6 ng/mL
[3]; male, Beagle, dog, plasma, po, male dogs, individual dogs 1M-5M
  half-life: 1.31 h
[3]; male, Beagle, dog, plasma, po, male dogs, mean
  half-life: 1.54 h

## CCC1(c2cccc(OC(=O)CCC(=O)N3CCC[C@H]3C(=O)O)c2)CCCCN(C)C1 (stereo partly drawn) [Meptazinol-[succinyl-(S)-proline] ester]
[4]
  Dog Cmax (plasma meptazinol): 0.7 ng/mL
  Dog Cmax (plasma prodrug levels, in brackets): 36 ng/mL
[5]; cynomolgus monkey, oral gavage of prodrug, meptazinol level
  Monkey Cmax (plasma meptazinol): 2.0 ng/mL
[5]; [11]
  Monkey Cmax (plasma prodrug levels, in brackets): 16 ng/mL
[6]; 2 h
  2 h stability in pH7.4 buffer (37° C.), Conversion to meptazinol: 4%
[6]
  1 h stability in simulated gastric fluid (37° C.), Conversion to meptazinol: 4%
[6]; [12]
  2 h stability in simulated intestinal fluid (37° C.), Conversion to meptazinol: 4%

## COc1ccc2c3c1O[C@H]1C(=O)CC[C@@]4(O)[C@@H](C2)N(C)CC[C@]314 [Oxycodone, oxycodone, reference compound]
[7]
  T>50%Cmax of oxycodone: 0.75 h
[8]; [13]
  T>50%Cmax of oxycodone: 1.8 h
Gut motility in the rat; 10 mg/kg
  % change from vehicle-treated animals, small intestine: −15.6%
  % change from vehicle-treated animals, total gut length: −16.0%
Gut motility in the rat; 30 mg/kg
  % change from vehicle-treated animals, small intestine: −52.2%
  % change from vehicle-treated animals, total gut length: −52.2%
Gut motility in the rat
  delay of the passage of the charcoal meal (gut motility): 52%
Gut motility in the rat; 100 mg/kg
  % change from vehicle-treated animals, small intestine: −75.5%
  % change from vehicle-treated animals, total gut length: −76.5%

## COc1ccc2c3c1O[C@H]1C(OC(=O)CCCC(=O)N[C@@H](CC(C)C)C(=O)O)=CC[C@@]4(O)[C@@H](C2)N(C)CC[C@]314 [Oxycodone-Glutaryl-Leu Enol Ester, oxycodone-[glutaryl-(S)-leucine] enol ester]
[1]
  Simulated gastric fluid (pH 1.1): % remaining after 2 h/37° C.: 98%
  Simulated intestinal fluid (pH 6.8): % remaining after 2 h/37° C.: 79%
[9]
  T50% Cmax of oxycodone: 3.4 (±0.7) h.
[8]; male cynomolgus monkeys, oral prodrug, 1 mg oxycodone free base equivalents/kg, individual monkeys 1-5
  Cmax of intact prodrug: BLQ
[8]; male cynomolgus monkeys, 1 mg oxycodone free base equivalents/kg, individual monkeys 1-5
  T>50%Cmax of oxycodone: 2.33 h and 2.40 h and 3.13 h and 4.66 h and 1.80 h
[8]; [13]
  T>50%Cmax of oxycodone: 2.86 h
[8]; male cynomolgus monkeys, 1 mg oxycodone free base equivalents/kg, mean (n=5), listed as OGLE
  T>50%Cmax of oxycodone: 2.9 h
[8]; monkeys, oral prodrug
  prodrug levels in plasma: below the limit of quantification

## COc1ccc2c3c1O[C@H]1[C@@H](O)C=C[C@H]4[C@@H](C2)N(C)CC[C@@]341 [codeine, reference compound]
[2]; median (n=5)
  T>50%Cmax of codeine: 1.2 h
Gut motility in the rat
  delay of the passage of the charcoal meal (gut motility): greater than 30%

## CCC1(c2cccc(OC(=O)c3ccccc3C(=O)N[C@@H](Cc3ccccc3)C(=O)O)c2)CCCCN(C)C1.O=C(O)C(F)(F)F (stereo partly drawn) [meptazinol [phthalyl-(S)-phenylalanine]ester trifluoroacetate]
[4]; oral gavage
  systemic levels of meptazinol versus expected Cmax after the drug itself: improved systemic levels of meptazinol
[4]
  Dog Cmax (plasma meptazinol): 9.1 ng/mL
  Dog Cmax (plasma prodrug levels, in brackets): 71 ng/mL
[5]; [11]
  Monkey Cmax (plasma prodrug levels, in brackets): BLQ
[5]; monkey, oral gavage
  improvement in systemic levels of meptazinol: not seen in the monkey
[6]; 2 h
  2 h stability in pH7.4 buffer (37° C.), Conversion to meptazinol: 72%
[6]
  1 h stability in simulated gastric fluid (37° C.), Conversion to meptazinol: 3%
[6]; [12]
  2 h stability in simulated intestinal fluid (37° C.), Conversion to meptazinol: 30%
[6]; simulated intestinal fluid, 2 h, 37° C.
  degradation in 2 h in simulated intestinal fluid: ~30%
